In paper PMC10249896, “AI-Assisted chemical probe discovery for the understudied Calcium-Calmodulin Dependent Kinase, PNCK” (PLOS Computational Biology, 2023):
Where “and” joins values, the source holds several entries; their conditions need not be identical. Identical values can stand only once. Like-named read-outs stand apart in the source and are kept apart here.

Tests used:
[1] = target: T1, GST-tagged PNCK recombinant protein (Homo sapiens, UniProt Q6P2M8); assay: ADP-Glo Kinase Assay, biochemical PNCK inhibitor screen; conditions: compound 10uM, 25uM ATP, normalized to DMSO and staurosporine controls; for inhibition at 10 µM: read-out: Avg. Normalized % Inhibition, 10uM, ADP Kinase Glo
T1 construct: GST; purchased Novus NBP1-99886
Description: ADP-Glo Kinase Assay (V6930, Promega) was used to screen the first round of compounds against PNCK. […] Autocamtide-II (GenScript RP10271) was used as the peptide substrate. This peptide was dissolved in water and prepared immediately prior to the assay. Calcium/Calmodulin 10X (Abcam ab189137) solution was used to create a custom kinase buffer: 40mM Tris,pH 7.5; 20mM MgCl2; 0.1mg/ml BSA; 50μM DTT and Ca2+/Calmodulin solution (0.03μg/μl, Calmodulin, 1mM Tris,pH 7.3, 0.5mM CaCl2). […] A standard curve was then done to determine the amount of protein needed to generate a signal in the linear range of the ATP curve. 100ng of PNCK and 2ng of substrate was used per well in the 96-well plate format of this assay. […] Plates were read using the Clariostar Plus. Data was normalized to a DMSO and staurosporine controls.
(§1) Data analysis of ADP Kinase Glo results were carried out per the manufacturer’s instructions. Results were represented as a percent decrease in activity. Data was normalized to staurosporine (positive control) as 100% decrease and DMSO (negative control) as a 0% decrease. Data for NanoBRET was analyzed by dividing the acceptor by the donor emission and […] to obtain raw millibret units (mBU). Background was subtracted using control emission averages. Data was normalized to positive and negative controls of staurosporine and DMSO. Concentration-response curves were plotted in GraphPad Prism 8 and IC50s were extrapolated using non-linear fit with concentrations transformed to logarithmic scale. Baseline was held constant and represented the average mBU of staurosporine controls while the top was constrained to represent the average mBU of DMSO controls. Error bars on dose-response curves represent standard deviations.

[2] = target: T2, PNCK Nano-luciferase fusion (Homo sapiens, UniProt Q6P2M8); assay: NanoBRET Target Engagement Intracellular Kinase Assay, cell-based PNCK binding screen and dose response in HEK293 cells; conditions: for cell permeability: stated on testing in NanoBRET assay
T2 construct: host or cells: HEK293
T2 sequence (Q6P2M8 whole entry, the tested form may be a part): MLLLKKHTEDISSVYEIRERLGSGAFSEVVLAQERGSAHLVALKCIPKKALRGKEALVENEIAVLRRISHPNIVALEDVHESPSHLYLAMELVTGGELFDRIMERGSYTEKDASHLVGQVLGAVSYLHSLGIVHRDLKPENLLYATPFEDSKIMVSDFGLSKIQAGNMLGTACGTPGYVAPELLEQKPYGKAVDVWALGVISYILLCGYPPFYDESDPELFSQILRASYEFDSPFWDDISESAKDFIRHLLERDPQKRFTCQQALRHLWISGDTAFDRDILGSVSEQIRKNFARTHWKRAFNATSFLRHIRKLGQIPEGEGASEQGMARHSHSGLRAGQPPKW
Description: The NanoBRET Target Engagement Intracellular Kinase Assay (Promega N2520) is a cell-based binding screen which reads loss of BRET signal as a result of target binding. A PNCK Nano-luciferase fusion vector plasmid was generated custom by Promega. The K-10 tracer was used for the assay, as determined by Promega. The plasmid was maxiprepped by Genewiz for use in all future assays. HEK293 cells were seeded in a T175 flask in DMEM with 10% FBS. The following day, cells were counted to 10,000, resuspended in assay media (Optimem with no phenol red, 1% FBS). Plasmid and transfection reagent (Fugene HD, Promega E2311) were added to the mixture and cells were seeded in a white 96-well plate. After 20–24 hours, media was changed, and the assay proceeded according to protocol. K10 tracer was added at the recommended concentration of 1uM while compounds were initially screened at both 10uM and 1uM. Cells incubated with compound at 37 degrees Celsius for a maximum of 2 hours before the plate was read using Clariostar Plus. Data was normalized to Staurosporine and DMSO controls. For compounds selected for further analysis, dose response curves were generated using the same testing protocol but at 8 different concentrations: 24uM, 12uM, 6uM, 3uM, 1.5uM, .75uM 0.375uM and 0.1875uM. UM195 was tested with concentrations from 12uM to 0.09375. Similarly, compounds from the analog by catalog analysis were tested at concentrations from 24uM to 0.1875uM.
as §1

[3] = compound 1uM, HEK293, K10 tracer 1uM, normalized to staurosporine and DMSO, read-out: Avg. Normalized % Inhibition, 1uM, Nanobret
[4] = compound 10uM, HEK293, K10 tracer 1uM, normalized to staurosporine and DMSO, read-out: Avg. Normalized % Inhibition, 10uM, Nanobret

inhibition at 1 µM [2, 3] [%]	inhibition at 10 µM [2, 4] [%]	SMILES	also measured
8.63	13.5	Cc1c(C(=O)O)sc2ncnc(NCc3nncn3CCc3ccccc3)c12 [UM_033]	inhibition at 10 µM [1]: 50.8%
0	18.9	COc1ccc(Cl)c(S(=O)(=O)Nc2ccc(OCC(=O)O)cc2)c1 [UM_038]	Avg. Normalized % Inhibition, 10uM, ADP Kinase Glo [1]: 68.8%; inhibition at 10 µM [1]: > 50%
0	0	COc1ccc(CNC(=O)c2cc(C3CC3)[nH]n2)cc1C(=O)O [UM_019]	Avg. Normalized % Inhibition, 10uM, ADP Kinase Glo [1]: Negligible
6.51	7.78	O=C(O)c1ccc(-c2nc3c([nH]2)CCN(C(=O)c2cc(C4CC4)n[nH]2)C3)cc1 [UM_034]	inhibition at 10 µM [1]: 51.7%
3.45	16.7	COc1cc(OC)c(Nc2ncnc3sc(C(=O)O)c(C)c23)cc1Cl [UM_028]	Avg. Normalized % Inhibition, 10uM, ADP Kinase Glo [1]: Negligible
0	0	O=C(O)Cc1ccc(NS(=O)(=O)c2cccc(Cl)c2Cl)cc1 [UM_024]	inhibition at 10 µM [1]: 48.6%
13.3	14.6	O=C(O)Cc1cc(C2CCN(C(=O)c3ccc(C(F)(F)F)nc3O)CC2)[nH]n1 [UM_031]	inhibition at 10 µM [1]: 7.65%
0	10.5	O=c1nc(CSc2nnc(-c3ccccc3)c3ccccc23)[nH][nH]1 [UM_022]	Avg. Normalized % Inhibition, 10uM, ADP Kinase Glo [1]: Negligible
2.86	17.6	Cc1ccc(F)c(S(=O)(=O)Nc2ccc(-c3nn(C)cc3C(=O)O)cc2)c1 [UM_023]	inhibition at 10 µM [1]: 38.2%
		CN([C@@H](Cc1ccc(OS(=O)(=O)c2cccc3cnccc23)cc1)C(=O)N1CCN(c2ccccc2)CC1)S(=O)(=O)c1cccc2cnccc12 [KN-62, reference compound]	inhibition at 10 µM [1]: 100%; inhibition at 1 µM ([2]; HEK293, read-out: Avg. Normalized % Inhibition, 1uM, Nanobret): 31.2%; inhibition at 10 µM ([2]; HEK293, read-out: Avg. Normalized % Inhibition, 10uM, Nanobret): 81.5%
0	17.2	CC(C)(C(=O)O)c1ccc(NS(=O)(=O)c2cc(F)c(F)cc2F)cc1 [UM_025]	inhibition at 10 µM [1]: 75.3%
2.17	6.89	O=C(O)Cc1cc(C2CCN(C(=O)Cc3n[nH]c4ccccc34)CC2)[nH]n1 [UM_039]	Avg. Normalized % Inhibition, 10uM, ADP Kinase Glo [1]: 91% and 91.1687%; NanoBRET binding, result in words ([2]; cell-based screen / comparison with parent hit): negligible activity
0	17.4	COc1cccc([C@@H](C)NC(=O)c2ccc(N3CC(=O)NC3=O)cc2)c1 [UM_032]	Avg. Normalized % Inhibition, 10uM, ADP Kinase Glo [1]: 69.5%; inhibition at 10 µM [1]: > 50%
22.4	49.4	CCOCCn1c(CN2CCN(CC)CC2)nc2c1c(O)nc(=O)n2C [UM_227]	
22.1	100	N#Cc1cnc(Sc2nnc(-c3cccc4ccccc34)o2)cn1 [UM_195, 5-[5-(naphthalen-1-yl)-1,3,4-oxadiazol-2-yl]sulfanylpyrazine-2-carbonitrile]	IC50 ([2]; 8-point concentration-response, HEK293): 3.36 µM; Dose-Response Curve Data (NanoBRET signal, replicates) ([2]; Concentration 1.20E-05 M): 5.32 and 5.59 and 5.20; Dose-Response Curve Data (NanoBRET signal, replicates) ([2]; Concentration 1.50E-06 M): 7.80 and 7.94 and 7.90; Dose-Response Curve Data (NanoBRET signal, replicates) ([2]; Concentration 1.88E-07 M): 9.08 and 9.29 and 8.92; Dose-Response Curve Data (NanoBRET signal, replicates) ([2]; Concentration 3.00E-06 M): 7.45 and 6.56 and 7.25; Dose-Response Curve Data (NanoBRET signal, replicates) ([2]; Concentration 3.75E-07 M): 9.32 and 8.97 and 9.18; Dose-Response Curve Data (NanoBRET signal, replicates) ([2]; Concentration 6.00E-06 M): 5.79 and 6.12 (2×); Dose-Response Curve Data (NanoBRET signal, replicates) ([2]; Concentration 7.50E-07 M): 8.84 and 8.55 and 8.27; Dose-Response Curve Data (NanoBRET signal, replicates) ([2]; Concentration 9.38E-08 M): 9.33 and 9.39 and 8.87
12	52.2	Cc1nnc(SCCCn2c(=O)[nH]c3ccccc32)n1N [UM_275]	
21.8	51.6	O=c1oc2cc(OC3OC(CO)C(O)C(O)C3O)c(Cl)cc2c2c1CCCC2 (stereo not drawn) [UM_226]	
2.17	22.7	Cc1ccnc2nc(C(=O)OCC(=O)c3ccc(Cl)cc3Cl)nn12 [UM_198]	

inhibition at 1 µM [2, 3] [%]	inhibition at 10 µM [2, 4] [%]	SMILES	also measured
5.94	87.8	O=c1[nH]c(-c2ccc(-n3cccn3)nc2)nc2sc3ccccc3c12 [UM_208]	
0	49.9	O=C(c1c(F)cc(F)cc1F)C1CCN(C(=O)c2ccnnc2)CC1 [UM_212]	
5.12	22.7	O=C(O)c1cccc(S(=O)(=O)Nc2nc3ccc(Cl)cc3s2)c1 [UM_203]	
16.7	61.2	Cc1cc(C)n2nc(SCc3nc4ccccc4s3)nc2n1 [UM_218]	
		O=C1CCCCCN1CCc1nc(-c2cccnn2)no1 [UM_242]	cell permeability [2]: not cell permeable
28	71.1	NC(=O)Nc1cccc(C(=O)Nc2cc3c(cc2Br)OCCO3)c1 [UM_222]	
10.9	37.8	CCc1nc(N)nc(SCCCn2c(=O)[nH]c3ccccc32)n1 [UM_276]	
0	1.24	CC1CCc2c(sc(NC(=O)c3cccs3)c2C(N)=O)C1 (stereo not drawn) [UM_255]	
0	0	CC1CCc2c(sc(NC(=O)c3ccc([N+](=O)[O-])s3)c2C(N)=O)C1 (stereo not drawn) [UM_250]	
1.68	27.1	Clc1nc(CN2CCCCC2)nc2sc3c(c12)CCC3 [UM_220]	
29	45.5	O=c1[nH]c2ccccc2n2c(SCCCn3c(=O)[nH]c4ccccc43)nnc12 [UM_273]	
25.9	46.3	Cc1nc2c(c(=O)[nH]1)CCN(Cc1cc3ccccc3n(C)c1=O)CC2 [UM_231]	
0	0	Nn1c(SCc2ccc(Br)cc2)nnc(CCC(=O)O)c1=O [UM_192]	cell permeability [2]: not cell permeable
		CNC(=O)[C@@H]1C[C@@H](N)CN1C(=O)CCc1nc(-c2cccnc2)no1 [UM_244]	cell permeability [2]: not cell permeable
27.9	74	O=C1CNC(=O)N1CCCOc1ccc2c3c(c(=O)oc2c1)CCCCC3 [UM_258]	
0	21.5	c1ccc2c(c1)ccn2CCc1nc(-c2cnccn2)no1 [UM_202]	
0.98	31.1	NC(=O)Cn1cnc2cc(-c3ccc(Cl)cc3)sc2c1=O [UM_219]	
0	16.9	Cn1cnn(CN2CCN(c3ccc(O)cc3)CC2)c1=S [UM_199]	
